According to patent US20250044294A1, “COMPOSITION AND METHOD OF TREATING A CANCER THROUGH AFFECTING MEMBRANE RECEPTORS OF CANCER CELLS AND THEIR DERIVED EXTRACELLULAR VESICLES” (National Yang Ming Chiao Tung University, priority 2023, published 2025):
Where two headings read alike, the source gives them in different places.

Key:
integrin α6/β4 = test: Western blotting of integrin α6/β4 on PDAC-derived EVs; format: cell-based, human; conditions: EVs derived from BxPC-3 and PANC-1 cells; short-term treatment
AKT activation [1] = test: Western blotting of AKT activation in PDAC cells; format: cell-based, human; conditions: 20 μM, 6 hours
Experimental: Cells or EVs were lysed in RIPA lysis buffer (containing 50 mM Tris-HCl, 1% NP-40, 150 mM NaCl, 0.1% SDS, 1 mM PMSF, 1 mM Na3VO4) with complete protease and […] (1:1000) (Sigma-Aldrich). The protein quantitation is analyzed by comparing to 2 mg/ml Bovine serum albumin (BSA). Prepare the cell sample with one-tenth of dilution and the EV sample without dilution. Next, prepare all sample to 30 ul then put 10 μl each well in 96-well plates. Protein concentrations were then determined using the BCA assay kit (Thermo, USA) according to the manufacturer's instructions. Then, the same amounts of protein lysates from cells and EVs were loaded onto 8-12% SDS polyacrylamide gels and subjected to electrophoresis at 80-100 V, followed by transferring the proteins to 0.22 or 0.45 μm poly-vinylidene fluoride membranes (Millipore). The membranes were blocked with 5% skimmed milk in […] (Tris-buffered saline containing Tween-20) for 1 h at room temperature and then washed 3 times (10 minutes for each time) with TBST (1M Tris-HCL pH7.5, NaCl, Tween 20 in ddH2O). After the step of washing, probed with antibodies specific for EV-enriched markers at […] overnight. […] The membrane was exposed using enhanced chemiluminescence reagents and analyzed using the Fujifilm LAS4000 luminescent image analysis system. […]

[2] = test system: integrin α6/β4 on BxPC-3-derived EVs; test: Laminin coating wound healing assay with BxPC-3-derived EVs; format: cell-based, human; conditions: laminin coating 1 μg/cm^2; EVs from PCP-treated BxPC-3 cells
Experimental: The culture inserts (ibidi, #80209) was put on 6 well dishes (2 inserts for each well), irradiated UV for 20 minutes and cells were seeded into the well of the insert and incubating 24 hours. The insert was removed gently and washed twice with PBS to remove the old medium and cell and be observed the gap which was formed by the insert through the microscope and captured the picture of the gap at 0 hours. After I captured of the gap, different treatments were added and incubated for 16 hours. The result was observed by the microscope and quantified by Image J.
In this assay, H6C7 cells were seeded in the wound healing inserts with or without 1 μg/cm^2 laminin coating in the six-well plate. Once the cells were attached, the wound healing inserts were removed, and H6C7 cells were exposed to BxPC-3-derived EVs and PCP-treated BxPC-3 cell-derived EVs.

[3] = target: T1, EGFR-HER2 protein-protein interactions (Homo sapiens, UniProt P00533+P04626); format: cell-based; conditions: HSC3 and SAS; pre-treatment 15 μM 30 min, then EGF 10 ng/mL 15 min
T1 construct: endogenous in cells; host or cells: HSC3 and SAS cells

BxPC-3 cells = test: Laminin-induced cell proliferation (SRB); format: cell-based, human; conditions: 48 hours
[4] = test system: 3R-4 and 3R-5-1 tumoroids; test: Protein expression in pancreatic cancer patient-derived tumoroids (western blotting, immunofluorescence); format: cell-based, human; conditions: 72-hour treatment
[5] = test system: H6C7 cells and WI-38 cells; test: Co-culture cell migration with PDAC-derived secretomes; format: cell-based, human
Experimental: In the transwell migration assay, cells were seeded in upper chambers of Transwell plates (Transwell® Permeable Support, 6.5 mm insert, 24 well plate, 8.0 μm pore polyester membrane with sterile, Corning, #3464) in serum-free (SF) medium and seeded 5×10^4-1×10^5 cells per well, while lower chambers were added medium with 10% FBS as an attractant. Drugs were treated in both upper and lower chambers, and incubated on the 24-well plate at 37° C. for 16-24 hours. The cells were fix with 4% paraformaldehyde (PFA, SIGMA, #F8775) for 10 minutes and staining with 1% crystal violet (MERCK, 1 g Crystal violet powder dissolved in 75 ml ddH2O and 25 ml […] then filters by 0.45 μm filter) for 0.5 hours. After drying the insert completely, take at least 3 cell pictures randomly in every sample by microscope and count the number of cells by Image J.
To initiate this exploration, a transwell migration assay in vitro was performed to assess the migration ability of PDAC cells. […] To achieve this, a co-culture cell migration system was established to examine the behavioral changes in normal cells treated with PDAC-derived secretomes.
For the cell line selection, the H6C7 cell line, derived from normal human pancreatic duct epithelial (HPDE) cells and immortalized, was employed to investigate the interactions between PDAC cells and human pancreatic duct cells. This cell line serves as a valuable tool for studying the molecular and cellular interactions that occur between PDAC cells and their surrounding pancreatic ductal epithelial cells. Additionally, to simulate the lung tissue environment and validate PDAC cells with high metastatic potential to the lung, human lung fibroblasts known as WI-38 cells were chosen as a relative normal cell model. By utilizing this model, the interactions between PDAC cells and the lung microenvironment can be examined and assessed.

[6] = target: T2, EGFR-MET protein-protein interactions (Homo sapiens, UniProt P00533+P08581); format: cell-based; conditions: HSC3; pre-treatment 15 μM 30 min, then EGF 10 ng/mL 15 min
T2 construct: endogenous in cells; host or cells: HSC3 cells

[7] = test system: PDAC cells (BxPC-3, PANC-1, AsPC-1); test: Transwell migration assay of PDAC cells; format: cell-based, human; conditions: compared to gemcitabine treatment
AKT activation [8] = test: Western blotting of AKT activation in NSCLC cells (A549); format: cell-based, human; conditions: 15 μM 30 min, pre-treatment and post-treatment, EGF 10 ng/mL 15 min
Experimental: DMSO was used as a vehicle control. For EGF stimulation, cells were incubated with 10 ng/mL with continuous drugs treatment for 15 min at 37° C.
Cells or EVs were lysed in RIPA lysis buffer (containing 50 mM Tris-HCl, 1% NP-40, 150 mM NaCl, 0.1% SDS, 1 mM PMSF, 1 mM Na3VO4) with complete protease and protease inhibitor cocktail (1:1000) (Sigma-Aldrich). The protein quantitation is analyzed by comparing to 2 mg/ml Bovine serum albumin (BSA). Prepare the cell sample with one-tenth of dilution and the EV sample without dilution. Next, prepare all sample to 30 ul then put 10 μl each well in 96-well plates. Protein concentrations were then determined using the BCA assay kit (Thermo, USA) according to the manufacturer's instructions. Then, the same amounts of protein lysates from cells and EVs were loaded onto 8-12% SDS polyacrylamide gels and subjected to electrophoresis at 80-100 V, followed by transferring the proteins to 0.22 or 0.45 μm poly-vinylidene fluoride membranes (Millipore). The membranes were blocked with 5% skimmed milk in PBST (Tris-buffered saline containing Tween-20) for 1 h at room temperature and then washed 3 times (10 minutes for each time) with TBST (1M Tris-HCL pH7.5, NaCl, Tween 20 in ddH2O). […] The membrane was exposed using enhanced chemiluminescence reagents and analyzed using the Fujifilm LAS4000 luminescent image analysis system.

[9] = target: T3, EGFR-p-EGFR protein-protein interactions (Homo sapiens, UniProt P00533); test: Proximity ligation assay in PDAC cells (BxPC-3); format: cell-based; parameters: endogenous in cells; conditions: pre-treatment 15 μM 30 min, then EGF 10 ng/mL 15 min
BxPC-3 cell-derived EVs = test: NanoFCM analysis of EV subpopulations from BxPC-3 cells; format: cell-based, human
Experimental: EV samples containing 3×10^9 particles were incubated with diluted antibodies (1:1000), including FITC-anti-CD9 antibodies, PE-anti-CD63 antibodies, and APC-anti-integrin β4 antibodies, for 30 minutes in a 37° C. water bath. Following the incubation period, an Amicon® Ultra Centrifugal Filter with a 100 kDa molecular weight cutoff (MWCO) was used and rinsed with 1× PBS buffer. The samples were centrifuged at 4000×g for 5 minutes, with the centrifugation process repeated three times. After centrifugation, the samples were retrieved and diluted 10-100 times for detecting the expression levels of EV surface proteins by NanoFCM. The results were analyzed using Kaluza Analysis Software.

[10] = target: T3, EGFR-p-EGFR protein-protein interactions; format: cell-based; parameters: endogenous in cells; host or cells: HSC3 and SAS cells; conditions: HSC3 and SAS; pre-treatment 15 μM 30 min, then EGF 10 ng/mL 15 min
BEAS-2B and CL141 cells = test: Transwell cell migration with NSCLC-derived secretomes and EVs; format: cell-based, human
[11] = 3R-4 tumoroids, western blotting

T3 sequence (P00533 25-1210): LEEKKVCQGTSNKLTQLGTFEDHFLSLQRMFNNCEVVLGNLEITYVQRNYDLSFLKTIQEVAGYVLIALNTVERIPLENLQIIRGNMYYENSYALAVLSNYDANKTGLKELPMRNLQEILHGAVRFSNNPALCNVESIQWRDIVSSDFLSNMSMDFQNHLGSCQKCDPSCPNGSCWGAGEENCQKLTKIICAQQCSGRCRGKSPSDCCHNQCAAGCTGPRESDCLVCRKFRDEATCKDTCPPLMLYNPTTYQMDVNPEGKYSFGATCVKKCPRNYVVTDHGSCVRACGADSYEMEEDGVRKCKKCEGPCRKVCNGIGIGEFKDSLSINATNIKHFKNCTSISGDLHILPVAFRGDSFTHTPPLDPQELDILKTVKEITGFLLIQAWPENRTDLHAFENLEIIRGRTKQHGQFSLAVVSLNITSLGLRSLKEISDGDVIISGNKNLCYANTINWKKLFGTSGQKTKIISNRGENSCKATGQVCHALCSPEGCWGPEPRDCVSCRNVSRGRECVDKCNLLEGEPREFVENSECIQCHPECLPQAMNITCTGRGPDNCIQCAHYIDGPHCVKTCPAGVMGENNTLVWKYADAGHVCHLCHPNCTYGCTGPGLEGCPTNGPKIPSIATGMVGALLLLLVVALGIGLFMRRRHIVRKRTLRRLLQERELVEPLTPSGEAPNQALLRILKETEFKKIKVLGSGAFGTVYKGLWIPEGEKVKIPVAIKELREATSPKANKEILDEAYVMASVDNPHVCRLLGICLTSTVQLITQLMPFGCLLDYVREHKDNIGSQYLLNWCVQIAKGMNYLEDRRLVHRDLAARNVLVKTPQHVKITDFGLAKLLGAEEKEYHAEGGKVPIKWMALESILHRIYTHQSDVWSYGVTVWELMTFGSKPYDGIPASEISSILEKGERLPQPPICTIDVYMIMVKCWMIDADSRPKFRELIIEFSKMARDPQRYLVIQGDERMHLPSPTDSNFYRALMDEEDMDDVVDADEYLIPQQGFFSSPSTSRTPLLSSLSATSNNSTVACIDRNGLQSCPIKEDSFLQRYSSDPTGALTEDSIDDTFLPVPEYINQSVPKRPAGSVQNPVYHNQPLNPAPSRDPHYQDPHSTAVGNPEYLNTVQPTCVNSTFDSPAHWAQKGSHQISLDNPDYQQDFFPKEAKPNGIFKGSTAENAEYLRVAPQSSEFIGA
T1 sequence (P00533 25-1210): as above
T1 sequence (P04626 23-1255): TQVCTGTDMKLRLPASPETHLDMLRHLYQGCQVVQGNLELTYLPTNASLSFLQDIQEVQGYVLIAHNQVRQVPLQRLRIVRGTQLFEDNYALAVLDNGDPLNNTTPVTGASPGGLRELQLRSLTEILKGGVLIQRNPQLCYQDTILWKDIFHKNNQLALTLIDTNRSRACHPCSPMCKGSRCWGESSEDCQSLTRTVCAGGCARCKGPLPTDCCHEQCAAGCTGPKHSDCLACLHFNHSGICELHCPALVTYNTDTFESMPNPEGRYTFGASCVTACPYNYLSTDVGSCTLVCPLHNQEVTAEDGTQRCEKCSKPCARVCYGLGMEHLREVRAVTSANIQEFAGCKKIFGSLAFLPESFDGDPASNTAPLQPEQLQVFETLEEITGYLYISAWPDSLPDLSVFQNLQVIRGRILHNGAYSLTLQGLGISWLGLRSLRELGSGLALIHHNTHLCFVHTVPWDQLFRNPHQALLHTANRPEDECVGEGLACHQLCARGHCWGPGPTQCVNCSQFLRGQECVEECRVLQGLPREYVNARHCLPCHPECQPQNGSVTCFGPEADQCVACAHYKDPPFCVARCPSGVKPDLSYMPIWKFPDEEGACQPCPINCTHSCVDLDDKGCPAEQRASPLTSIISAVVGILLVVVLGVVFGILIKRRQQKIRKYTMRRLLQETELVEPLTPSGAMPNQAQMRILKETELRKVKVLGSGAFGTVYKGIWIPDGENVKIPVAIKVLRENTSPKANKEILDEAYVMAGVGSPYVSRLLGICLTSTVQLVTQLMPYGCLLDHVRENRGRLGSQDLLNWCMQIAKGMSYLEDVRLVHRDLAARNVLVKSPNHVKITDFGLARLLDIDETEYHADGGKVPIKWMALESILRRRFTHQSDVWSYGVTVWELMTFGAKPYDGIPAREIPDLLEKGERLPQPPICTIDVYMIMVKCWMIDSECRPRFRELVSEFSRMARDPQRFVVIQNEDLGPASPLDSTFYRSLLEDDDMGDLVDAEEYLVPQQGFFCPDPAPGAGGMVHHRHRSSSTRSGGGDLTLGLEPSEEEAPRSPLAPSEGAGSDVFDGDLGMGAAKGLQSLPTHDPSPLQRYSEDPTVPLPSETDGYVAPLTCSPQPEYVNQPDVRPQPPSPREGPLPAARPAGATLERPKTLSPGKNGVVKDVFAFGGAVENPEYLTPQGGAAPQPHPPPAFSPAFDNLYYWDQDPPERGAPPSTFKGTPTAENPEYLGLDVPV

CN1CCN(CCCN2c3ccccc3Sc3ccc(Cl)cc32)CC1 [PCP, Prochlorperazine]
integrin α6/β4 protein expression on EVs (integrin α6/β4): inhibited integrin α6/β4 protein expression | AKT activation (AKT activation [1]): suppressed AKT activation | functional activity of integrin α6/β4 on EVs (migration of H6C7 cells) [2]: significantly inhibited | EGFR-HER2 protein-protein interactions [3]: could suppress EGFR-HER2 protein-protein interactions | laminin-induced cell proliferation rate (BxPC-3 cells; 1 μg/cm^2 laminin): reversed the increased cell proliferation rate | drug sensitivity to PCP after laminin binding (BxPC-3 cells; compared to the vehicle group): significantly higher increase in drug sensitivity | expression levels of CD9 and integrin β4 ([4]; 3R-4 and 3R-5-1 tumoroids, immunofluorescence): also inhibited the expression levels of CD9 and integrin β4 | expression levels of GPC1 [4, 11]: unchanged expression levels of GPC1 | expression levels of integrin α6/β4, CD9, EGFR, HER2, HER3 [4, 11]: inhibited the expression levels | migratory capability of WI-38 cells ([5]; AsPC-1-derived secretomes): comparatively weaker effect | migratory capability of WI-38 cells ([5]; BxPC-3-derived secretomes): strongest inhibition | migratory capability of WI-38 cells ([5]; PANC-1-derived secretomes): least effect | migratory behavior of H6C7 cells ([5]; co-culture with BxPC-3-derived secretomes): significantly suppressed | EGFR-MET protein-protein interactions [6]: could suppress EGFR-MET protein-protein interactions | migration ability of PDAC cells [7]: significantly suppressed | AKT activation (AKT activation [8]): effectively suppressed AKT activation | EGFR-p-EGFR protein-protein interactions [9]: could suppress | co-expression levels of CD9 and integrin β4 proteins on ITGB4+CD9+ EVs (BxPC-3 cell-derived EVs): downregulated | secretion of CD9-EVs (BxPC-3 cell-derived EVs): significantly downregulated | secretion of CD63-EVs (BxPC-3 cell-derived EVs): upregulating | secretion of ITGB4+CD9+ EVs (BxPC-3 cell-derived EVs): significantly suppressed | EGFR-p-EGFR protein-protein interactions [10]: could suppress EGFR-p-EGFR protein-protein interactions | migratory capability induced by NSCLC-derived secretomes (BEAS-2B and CL141 cells; BEAS-2B and CL141, secretomes from H441 cells): inhibitory effect | migratory capability induced by NSCLC-derived EVs (BEAS-2B and CL141 cells; treated cells with NSCLC-derived EVs): could downregulate this increased migratory capability
